Test results reported in patent US8673940B2, “Compounds for the treatment of diseases associated with amyloid or amyloid-like proteins” (AC Immune SA, priority 2006, dated 2014).
Counter-ions that a name gives are not always drawn. Like-named read-outs stand apart in the source and are kept apart here. One block for each compound: values may come before it.

How the values were obtained:
[1] = prior-art compound, stated in background; cited from earlier work
[2] = prior-art compound, stated in background; cited from earlier work; remark: listed apart in the source
[3] = molecular target: T1, amyloid beta (Aβ) 1-42 peptide (Homo sapiens, UniProt P05067); assay: Thioflavin T spectrofluorescence assay, inhibition of Aβ1-42 aggregation; type: biochemical
T1 construct: amyloid beta (Aβ) 1-42 peptide; purchased Bachem
T1 sequence (P05067 672-713 limits assumed): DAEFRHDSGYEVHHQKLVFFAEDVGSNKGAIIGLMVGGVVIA
Procedure: A number of the small molecules were tested for their capacity to inhibit the aggregation of amyloid beta (Aβ) 1-42 peptide using a thioflavin T spectrofluorescence assay.
Aβ1-42 lyophilized powder (Bachem) was reconstituted in hexafluoroisopropanol (HFIP) to 1 mM. The peptide solution was sonicated for 15 min at room temperature, agitated overnight, and aliquots were placed into non-siliconized microcentrifuge tubes. The HFIP was then evaporated under a stream of argon. The resulting peptide film was dried under vacuum for 10 min, tightly sealed and stored at −80° C. until used.
To assay for the small molecule-mediated inhibition of Aβ1-42 aggregation, the small molecules were dissolved before each experiment in anhydrous dimethyl sulfoxide (DMSO, Sigma-Aldrich) to reach a concentration of 7.4 mM. Aβ1-42 peptide film was dissolved in DMSO to reach 400 μM. Assay solution in PBS buffer was prepared in non-siliconized incubation tubes to reach the following concentrations: 330 μM small molecule, 33 μM Aβ1-42, 10 μM thioflavin T (ThT), and 12.8% DMSO. Therefore, the final molar ratio of small molecule to Aβ1-42 was 10:1. A positive control without a small molecule was prepared to measure maximum RFU. A negative control without Aβ1-42 was prepared for each small molecule. 3-Aminopyrazole trimer (Trimer) was tested in all assays to ascertain reproducibility between independent experiments. The solutions were incubated for 24 hrs at 37° C., and the spectrofluorescence (relative fluorescence units; RFU) was read in six replicates in black 384-well assay plates (Perkin-Elmer) on a Perkin-Elmer FluoroCount spectrofluorometer. Inhibition of aggregation is expressed as mean % inhibition or ±1 standard deviation (SD) according to the following equation: […]
Cut-off criterium for the selection of functional molecules was defined at 50% inhibition capacity.
The small molecules were evaluated for their capacity to mediate inhibition of Aβ1-42 aggregation at a 10:1 small molecule to Aβ1-42 molar ratio. The results are expressed as mean±standard deviation of two independent experiments.

[4] = molecular target: T2, Oregon Green labelled Aβ1-42 (Homo sapiens, UniProt P05067); assay: FCS-assay with 5 nM Oregon Green labelled Aβ-peptide (disaggregation of preformed aggregates); type: biochemical
T2 construct: DMSO-stock solutions of Oregon Green labelled Aβ1-42 1:1 with deionized water
T2 sequence (P05067 672-713 limits assumed): as above
Procedure: In order to analyse for the disaggregating properties of the compounds, preformed aggregates were used, which were induced straight before the FCS-measurement by diluting 500 nM DMSO-stock solutions of Oregon Green labelled Aβ1-42 1:1 with deionized water. The final concentration of Oregon Green labelled Aβ-peptide was 5 nM in 1×PBS and 3% DMSO. In order to improve the reproducibility of the measurements of the concentration dependencies of all samples were prepared fourfold.

Compound: 3-Aminopyrazole trimer
metabolic stability [1]: metabolically unstable
carcinogenicity [2]: carcinogenic
mutagenicity [2]: mutagenic

Compound: Clc1ccc(-c2csc(NCc3cnc(NCc4ccccc4)s3)n2)cc1 [Compound 2ak, N-Benzyl-5-((4-(4-chlorophenyl)thiazol-2-ylamino)methyl)thiazol-2-amine]
inhibition at 330 µM ([3]; 24 h): 37.2 ± 14.8%
melting point: 105 to 106 °C

Compound: CCCNc1ccc(NCc2ccc(NCc3ccc(NCCC)nc3)nc2)nc1 [Compound 2c, N^5-Propyl-N^2-((6-((6-(propylamino)pyridin-3-yl)methylamino)pyridin-3-yl)methyl)pyridine-2,5-diamine]
percentage of the "number of peaks" value obtained for the control reaction without added compound ([4]; 100 nM compound): 29.4%
percentage of the "peaks x height" value obtained for the control reaction without added compound ([4]; 100 nM compound): 26.6%
percentage of the "number of peaks" value obtained for the control reaction without added compound ([4]; 200 nM compound): 51.2%
percentage of the "peaks x height" value obtained for the control reaction without added compound ([4]; 200 nM compound): 45.1%

Other lines, results leading:

inhibition at 330 µM ([3]; 330 μM small molecule, 33 μM Aβ1-42 (10:1 molar ratio), 24 hrs at 37° C., mean ± SD of two independent experiments, read-out: % inhibition): 86.8 ± 2.9%
percentage of the "number of peaks" value obtained for the control reaction without added compound ([4]; 200 nM compound): 67.2%
percentage of the "peaks x height" value obtained for the control reaction without added compound ([4]; 200 nM compound): 53.3%
Compound: Fc1ccc(-c2cc(NCc3cccc(NCc4ccccc4)n3)n[nH]2)cc1 [Compound 2t, N-Benzyl-6-((5-(4-fluorophenyl)-1H-pyrazol-3-ylamino)methyl)pyridin-2-amine]

melting point: 261 to 262 °C
Compound: Nc1cccc(NCc2ccc(NCc3ccccc3)nc2)n1 (as salt: hydrochloride) [Compound 2y, N^2-((6-(benzylamino)pyridin-3-yl)methyl)pyridine-2,6-diamine]
